Laboratory results reported in patent publication US20040167217A1, “Neuroprotective effects of polyphenolic compounds” (priority 2003, published 2004).
“Also recorded” adds a separate entry of the source.

Columns and labels:
[1] = tested on: cerebellar granule cells; assay: Oligonucleosome formation (cell death detection ELISA), low K+; assay type: cell-based, rat; conditions: for apoptosis (oligonucleosome formation) induced by low extracellular K+: curcumin 1, 5, 10, 25 and 50 μM
Experimental: (§1) Primary cultures of cortical neurons and cerebellar granule cells were prepared. In brief, cortical neurons were prepared from fetal brain from 17-day pregnant rat and cerebellar granule cells from 8-day old rats. Brain tissues were dissociated through trypsinization in 0.025% trypsin solution and trituration. Dissociated cells were collected through centrifugation and resuspended in standard medium containing: basal Eagle's medium containing 10% fetal bovine serum (FCS), 2 mM glutamine, genatmycin 0.05 mg/ml, and 25 mM KCI. Cells were plated at a density of 1.8×10^6 onto 35-mm dishes coated with 10 micrograms/ml ply-L-lysine.
To induce programmed cell death in […] granule cells, two different experimental well-established paradigms: serum deprivation and low K^+, were performed. In particular, neurons were cultured after their plating in serum free medium containing 25 mM KCI or in standard medium for 6 days and then agitating them in a medium containing 10% FCS and 5 mM KCI. In both of these paradigms, control cells were grown in medium containing 10% FCS and 25 mM KCI.
To induce apoptosis in cortical neurons, β-amyloid peptide (1-40), a molecule related to the pathogenesis of Alzheimer disease and a well known inducer of apoptosis was added.

[2] = tested on: Male Wistar rats; assay: Brain lipid peroxides (FOX2) after T-BuOOH; assay type: in vivo, rat
Experimental: Male Wistar rats, weighing 140-180 g, were used for all experiments. Ten animals per experimental group were pre-administrated with curcumin, suitably suspended in distilled water, at the dose of 50 mg/kg per day, through oral intubation, for 7 days, before an intracerebroventricular injection of T-butylhydroperoxide (T-BuOOH) 2 μl of a 70% solution of phosphate buffered saline (PBS)^16. Lethality was assessed after administration of T-BuOOH at time points: 0, 2, 6, 12, and 24 h, and was expressed as the percentage of survival relative to the lethality observed in T-BuOOH plus Tween/saline vehicle (control) treated animals (FIG. 11A). […]
Briefly, brain areas were dissected and homogenized in ice cold 0.1 M, pH 7.5 phosphate buffer (final vol 1.1 ml). […] Hydroperoxides were quantitated by the FOX2 method^17. […] After centrifugation at 12,000×g for 5 min to remove any flocculated material, absorbance of the supernatant was then read at 560 nm.
(§2) Male Wistar rats, weighing 140-180 g, were used for all experiments. […] Lethality was assessed after administration of T-BuOOH at time points: 0, 2, 6, 12, and 24 h, and was expressed as the percentage of survival relative to the lethality observed in T-BuOOH plus Tween/saline vehicle (control) treated animals (FIG. 12A). […]

[3] = tested on: HO-1; assay: HO-1 protein expression, Western blot, astrocytes; assay type: cell-based
Experimental: Type 1 astrocytes (DI TNC1) were purchased from the American Type Culture Collection (Manassas, VA) and cultured in Dulbecco's modified Eagle's medium containing 4.5 g/l glucose, 2 mM glutamine, 100 units/ ml penicillin, and 0.1 mg/ml streptomycin and supplemented with 10% fetal bovine serum. Cells were grown in 75-cm^2 flasks and maintained at 37° C. in a humidified atmosphere of air and 5% CO2. Confluent cells were exposed to various concentrations of curcumin, CAPE, or Curcumin-95. After each treatment (6 or 24 h), cells were harvested for the determination of heme oxygenase activity, HO-1 protein expression, and intracellular glutathione. Astrocytes growing in 24 wells were exposed to polyphenolic compounds, and cell viability was determined at 24 h. After treatment with curcumin, or CAPE, samples of astrocytes were also analyzed for HO-1 protein expression using a Western immunoblot technique described previously^18,19. Briefly, an equal amount of proteins (30 μg) for each sample was separated by SDS-polyacrylamide gel electrophoresis and transferred overnight to nitrocellulose membranes, and the non-specific binding of antibodies was blocked with 3% non-fat dried milk in PBS. Membranes were then probed with a polyclonal rabbit anti-HO-1 antibody (Stressgen) (1:1000 dilution in Tris-buffered saline, pH 7.4) for 2 h at room temperature. After three washes with PBS, blots were visualized using an amplified alkaline phosphatase kit from Sigma (Extra-3A), and the relative density of bands was analyzed by the use of an imaging densitometer (model GS-700; Bio-Rad, Herts, UK). Blots shown are representative of three independent experiments.

[4] = tested on: cortical neurons; assay: Oligonucleosome formation in cortical neurons exposed to β-amyloid peptide (1-40); assay type: cell-based, rat; conditions: for apoptosis (oligonucleosome formation) induced by β-amyloid peptide (1-40): 20 μM β-amyloid peptide (1-40), parallel treatment
Experimental: as §1
An inhibitor of HO-1 activity may be used to determine whether or not the effects of the polyphenolic compounds or analogs thereof are induced through the heme oxygenase signaling pathway. To understand the relevance of the induction of the stress protein HO-1 on the neuroprotective effects afforded by curcumin we treated cortical neuron exposed to β-amyloid with curcumin ([…]) alone or in the presence of tinprotoporphirine IX (SnPP) 40 μM, a specific inhibitor of HO-1 activity. The same treatment was performed in cortical neurons exposed to GOX-induced cellular damage.

[5] = tested on: Male Wistar rats; assay: Lethality after intracerebroventricular T-BuOOH; assay type: in vivo, rat
Experimental: Male Wistar rats, weighing 140-180 g, were used for all experiments. Ten animals per experimental group were pre-administrated with curcumin, suitably suspended in distilled water, at the dose of 50 mg/kg per day, through oral intubation, for 7 days, before an intracerebroventricular injection of T-butylhydroperoxide (T-BuOOH) 2 μl of a 70% solution of phosphate buffered saline (PBS)^16. Lethality was assessed after administration of T-BuOOH at time points: 0, 2, 6, 12, and 24 h, and was expressed as the percentage of survival relative to the lethality observed in T-BuOOH plus Tween/saline vehicle (control) treated animals (FIG. 11A). After 30h the surviving animals were sacrificed and their brains quickly removed to investigate lipid peroxide formation as an index of oxidative challenge in neurons.
as §2

Row | SMILES | concentration with strongest / most effective anti-apoptotic effect [1] | apoptosis (oligonucleosome formation) induced by low extracellular K+ [1] | lipid peroxides in brain areas (oxidative damage) ([2]; 20 mg/kg per day oral for 7 days before T-BuOOH) | concentration of maximal HO-1 protein expression [3] | HO-1 protein levels ([3]; low concentrations 15-50 μM) | apoptosis (oligonucleosome formation) induced by β-amyloid peptide (1-40) [4] | concentration most effective in protecting from apoptosis ([4]; β-amyloid) | protection against T-BuOOH induced lethality ([5]; 20 mg/kg per day oral for 7 days before i.c.v. T-BuOOH) | lipid peroxides in brain areas (oxidative damage) ([2]; 50 mg/kg per day oral for 7 days before T-BuOOH, cortex, striatum, hippocampus, cerebellum) | HO-1 protein expression ([3]; 50-100 μM) | HO-1 protein expression ([3]; 6 h, 15 and 30 μM) | HO-1 protein expression ([3]; 24 h after treatment) | apoptosis induced by β-amyloid in the presence of HO-1 inhibitor SnPP ([4]; curcumin plus SnPP 40 μM) | animals that died after T-BuOOH ([5]; 50 mg/kg per day oral for 7 days before i.c.v. T-BuOOH, over 24 h (T-BuOOH alone 60%))
1 | O=C(/C=C/c1ccc(O)c(O)c1)OCCc1ccccc1 [CAPE, Caffeic acid phenethyl ester] | 25 µM | strong dose-dependent anti-apoptotic effect | prevented oxidative damages to neuronal tissues | 30 µM | substantial increase | strong dose-dependent anti-apoptotic effect | 25 µM | marked protection |  |  |  |  |  | 
2 | COc1cc(C=CC(=O)CC(=O)C=Cc2ccc(O)c(OC)c2)ccc1O [curcumin, 1,7-bis[4-Hydroxy-3-methoxyphenyl]-1,6-heptadiene-3,5-dione] | 25 µM | significantly reduced apoptosis |  |  |  | able to overcome much of the cellular damage caused by β-amyloid; also recorded: dramatically protect the cells against apoptosis |  |  | prevented the oxidative damages to neuronal tissues | failed to increase HO-1 expression | marked up-regulation of HO-1 protein | over-expression of HO-1 was also found | only able to partially reduce the apoptotic effects | 20%
